Experimental findings from ChEMBL document CHEMBL1201862, “PubChem BioAssay data set” (2004) are described below.

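The compound was tested at five concentrations on cells cultured in 96-well plates, with a 48-hour exposure period. Here, GI50 denotes the concentration required for 50% inhibition of growth.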 Active and inactive are the calls of the source. Cut-off read from the data, not from the text of the source: active = GI50 up to about 1.1 µM and inactive = higher.

Among the test systems are SK-OV-3; SNB-19; SF-539; HL-60; RPMI-8226; OVCAR-5; NCI-H23; SR; SW-620; UACC-62; OVCAR-3; SK-MEL-2; HOP-92; NCI-H460; MOLT-4; IGROV-1; UO-31; HT-29; TK-10; CAKI-1.
Assay in all cases: inhibition of tumour cell growth, NCI panel, 48 h

Regarding `Nc1nc(O)c2[nH]cnc2[n+]1[O-]`, the GI50 with SK-OV-3, with SNB-19, in the assay with SF-539, in the assay with HL-60, with RPMI-8226 and in the assay on OVCAR-5 was > 100 µM (inactive) each time. In addition, the GI50 was > 100 µM (inactive) in the assay on NCI-H23; 75.3 µM (inactive) with SR; > 100 µM (inactive) with SW-620; > 100 µM (inactive) with UACC-62; > 100 µM (inactive) in the assay on OVCAR-3; > 100 µM (inactive) with SK-MEL-2. The GI50 in the assay with HOP-92, in the assay with NCI-H460, in the assay on MOLT-4, in the assay with IGROV-1, in the assay on UO-31 and in the assay with HT-29 was > 100 µM (inactive) each time. The GI50 with TK-10 was 53.3 µM (inactive).
`COc1cccc(C2c3cc4c(cc3OC(N3CCOCC3)C2C)OCO4)c1` (stereo unspecified): the GI50 was 17.9 µM (inactive) in the assay on SK-OV-3; 20.5 µM (inactive) with SNB-19; > 100 µM (inactive) in the assay on RPMI-8226; 27 µM (inactive) in the assay on OVCAR-5; 9.1 µM (inactive) with SR; 3.19 µM (inactive) with SW-620. The GI50 with UACC-62 was 8.47 µM (inactive); in the assay on OVCAR-3 it was 7.74 µM (inactive); in the assay with SK-MEL-2, 12.2 µM (inactive); with HOP-92 it was 25.5 µM (inactive); in the assay with NCI-H460, 14.2 µM (inactive); with MOLT-4, 2.7 µM (inactive). In addition, the values for the GI50 in the assay on IGROV-1, in the assay on UO-31 and in the assay with HT-29 were 15 µM (inactive), 12.8 µM (inactive) and 4.68 µM (inactive), respectively.
For the molecule `Cc1cc(C)nc(NS(=O)(=O)c2ccc(NC(=O)c3cccc4c(Nc5ccc(S(=O)(=O)Nc6cc(C)on6)cc5)c5ccccc5nc34)cc2)n1`, the GI50 is 27.9 µM (inactive) with SK-OV-3; 15.7 µM (inactive) in the assay on SNB-19; 17.1 µM (inactive) in the assay with SF-539; 26.5 µM (inactive) in the assay on HL-60; 16.7 µM (inactive) in the assay on OVCAR-5; 18.3 µM (inactive) in the assay on NCI-H23. Besides, the GI50 is 27.2 µM (inactive) in the assay on SR; 20.3 µM (inactive) in the assay on UACC-62; 19.9 µM (inactive) in the assay on OVCAR-3; 19.5 µM (inactive) in the assay with SK-MEL-2; 25.6 µM (inactive) with NCI-H460; 25.4 µM (inactive) with MOLT-4. Further, the GI50 in the assay with UO-31 is 35 µM (inactive); in the assay with HT-29, 22.2 µM (inactive); with TK-10, 34.4 µM (inactive).
Regarding `CC1(Br)S(=O)(=O)OCCOS1(=O)=O`, the GI50 with SK-OV-3, in the assay with SNB-19, in the assay with SF-539, in the assay with HL-60, in the assay with RPMI-8226 and in the assay with OVCAR-5 was > 100 µM (inactive) each time. Also, the GI50 with NCI-H23, in the assay with SR, in the assay with SW-620, in the assay on UACC-62, in the assay with OVCAR-3 and in the assay with SK-MEL-2 was > 100 µM (inactive) in each case. Moreover, the GI50 in the assay on HOP-92, with NCI-H460, in the assay on MOLT-4, in the assay with IGROV-1, with UO-31 and in the assay on HT-29 was > 100 µM (inactive) in each case. Further, the GI50 in the assay with TK-10 is > 100 µM (inactive).
Consider `CSc1sc(C)cc1-c1nsc(=O)o1`, for which the GI50 in the assay on SNB-19, in the assay on HL-60, with RPMI-8226, with OVCAR-5, with NCI-H23 and in the assay on SR was > 100 µM (inactive) each time. Moreover, the GI50 in the assay on SW-620, in the assay with UACC-62, in the assay with HOP-92, in the assay on NCI-H460, with CAKI-1 and in the assay with MOLT-4 was > 100 µM (inactive) each time. Further, the GI50 in the assay on IGROV-1, in the assay on UO-31 and with HT-29 was > 100 µM (inactive) in each case.
In the case of `COc1ccc(NC(=O)C(=O)NNC(=O)c2sc(NNC(C)=O)nc2C)c([N+](=O)[O-])c1`, the GI50 in the assay with SK-OV-3 was > 100 µM (inactive); in the assay on SNB-19 it was > 100 µM (inactive); with SF-539, > 100 µM (inactive); in the assay on HL-60, 42.7 µM (inactive); in the assay on RPMI-8226 it was 65.9 µM (inactive); in the assay with OVCAR-5 it was > 100 µM (inactive). Further, the GI50 was > 100 µM (inactive) in the assay with NCI-H23; 45.3 µM (inactive) with SR; 35.6 µM (inactive) in the assay on SW-620; 82.6 µM (inactive) in the assay with UACC-62; 33.5 µM (inactive) with OVCAR-3; > 100 µM (inactive) in the assay with SK-MEL-2. The GI50 in the assay on HOP-92 was > 100 µM (inactive); with NCI-H460 it was > 100 µM (inactive); in the assay with MOLT-4 it was 36 µM (inactive); with IGROV-1 it was > 10 µM (inactive); in the assay with UO-31 it was > 100 µM (inactive); in the assay with HT-29, > 100 µM (inactive). The GI50 with TK-10 is > 100 µM (inactive).
As for `CCc1ncc(C(C)(O)c2ccccc2)n1Cc1ccccc1` (stereo unspecified), the GI50 in the assay with SK-OV-3 was 67.6 µM (inactive); in the assay with SNB-19, 42.4 µM (inactive); in the assay on SF-539, 37.2 µM (inactive); in the assay on RPMI-8226, 32.3 µM (inactive); in the assay with OVCAR-5, 98.6 µM (inactive); with NCI-H23, 5.56 µM (inactive). For the same molecule, the GI50 with SR was 14.8 µM (inactive); in the assay with SW-620, 31.6 µM (inactive); in the assay with UACC-62 it was 20.9 µM (inactive); in the assay with OVCAR-3, 40.6 µM (inactive); with SK-MEL-2, 70.8 µM (inactive); with HOP-92, 67.3 µM (inactive). Further, the GI50 in the assay with NCI-H460 is 54.7 µM (inactive); with CAKI-1 it was 35.4 µM (inactive); in the assay on MOLT-4 it was 22.5 µM (inactive); in the assay with IGROV-1 it was 42.4 µM (inactive); in the assay on UO-31, 55.1 µM (inactive); in the assay on HT-29 it was 31.8 µM (inactive). Also, the GI50 with TK-10 was 33.5 µM (inactive).
Regarding `Cn1c(=O)c(Cl)c(N=[N+]=[N-])c2ccccc21`, the GI50 is > 100 µM (inactive) with SK-OV-3; > 100 µM (inactive) in the assay with SNB-19; > 100 µM (inactive) in the assay on SF-539; > 100 µM (inactive) in the assay on OVCAR-5; > 100 µM (inactive) with NCI-H23; 58.5 µM (inactive) with SR. Moreover, the GI50 in the assay with SW-620 was > 100 µM (inactive); in the assay on UACC-62, 68.1 µM (inactive); in the assay with OVCAR-3 it was 33.3 µM (inactive); in the assay on SK-MEL-2, > 100 µM (inactive); in the assay on HOP-92 it was 84.1 µM (inactive); in the assay on NCI-H460 it was > 100 µM (inactive). The GI50 in the assay with CAKI-1 is 78.7 µM (inactive); in the assay on MOLT-4 it was 23.3 µM (inactive); with IGROV-1, > 100 µM (inactive); with UO-31, > 100 µM (inactive); in the assay on HT-29 it was > 100 µM (inactive); in the assay with TK-10, > 100 µM (inactive).
On to `COc1cc2c(cc1OC)C1(COc3cc(O)c(O)c(O)c3C1=O)C2` (stereo unspecified), for which the GI50 in the assay on SK-OV-3, in the assay on SNB-19, in the assay with SF-539, in the assay with HL-60, in the assay with RPMI-8226 and in the assay with OVCAR-5 was > 50 µM (inactive) in each case. For the same molecule, the GI50 with NCI-H23 was 45.4 µM (inactive); with SR, > 50 µM (inactive); in the assay on SW-620 it was > 50 µM (inactive); in the assay with UACC-62, > 50 µM (inactive); in the assay on OVCAR-3 it was > 50 µM (inactive); in the assay with SK-MEL-2, > 50 µM (inactive). Besides, the GI50 with NCI-H460, with CAKI-1, in the assay on MOLT-4, with IGROV-1, in the assay on UO-31 and in the assay on HT-29 was > 50 µM (inactive) in each case. Moreover, the GI50 with TK-10 is > 50 µM (inactive).
With `C=C(C)C1Cc2c(cc(O)c3c(=O)c4ccccc4n(C)c23)O1` (stereo unspecified), the GI50 is 25.5 µM (inactive) with SK-OV-3; 13.9 µM (inactive) in the assay with SNB-19; 39 µM (inactive) in the assay with HL-60; > 100 µM (inactive) in the assay with RPMI-8226; > 100 µM (inactive) with OVCAR-5; 32.2 µM (inactive) in the assay on NCI-H23. Moreover, the GI50 with SR was 29.9 µM (inactive); with SW-620, 36 µM (inactive); with SK-MEL-2, 34.8 µM (inactive); with HOP-92, 20.6 µM (inactive); in the assay on NCI-H460 it was 43.5 µM (inactive); with CAKI-1 it was 20.7 µM (inactive). Besides, the values for the GI50 in the assay with MOLT-4, with HT-29 and with TK-10 were > 100 µM (inactive), > 100 µM (inactive) and 17.5 µM (inactive), respectively.
Regarding `S=C=NCCc1ccccc1` [PHENETHYLISOTHIOCYANATE], the GI50 in the assay with SK-OV-3 was 1.72 µM (inactive); with SNB-19, 1.73 µM (inactive); with SF-539, 0.207 µM (active); in the assay on HL-60, 0.385 µM (active); in the assay on RPMI-8226, 0.179 µM (active); in the assay with OVCAR-5, 1.55 µM (inactive). The GI50 is 0.453 µM (active) in the assay with NCI-H23; 0.351 µM (active) in the assay on SR; 0.31 µM (active) in the assay with SW-620; 0.839 µM (active) in the assay on UACC-62; 0.612 µM (active) in the assay on OVCAR-3; 0.402 µM (active) in the assay with SK-MEL-2. The GI50 in the assay on NCI-H460 was 0.0973 µM (active); in the assay with MOLT-4 it was 0.53 µM (active); in the assay with IGROV-1, 0.435 µM (active); in the assay on UO-31, 1.59 µM (inactive); with HT-29, 0.219 µM (active); in the assay with TK-10, 0.813 µM (active).
